From PubChem BioAssay (NCI)
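Test compounds were applied to cells in 96-well plates for 48 hours at 5 doses. GI50: concentration for 50% inhibition of growth. TGI is the concentration that stops growth completely.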

Experiments:
Experiment in all cases: NCI anticancer screen, dose series, 48 h
[1] = tested on: MALME-3M melanoma
[2] = tested on: KM12 colon
[3] = tested on: U251 CNS
[4] = tested on: ACHN renal
[5] = tested on: HL-60(TB) leukemia
[6] = tested on: SF-295 CNS
[7] = tested on: HT29 colon
[8] = tested on: EKVX NSCLC
[9] = tested on: MCF7 breast
[10] = tested on: IGROV1 ovarian
[11] = tested on: TK-10 renal
[12] = tested on: SK-MEL-28 melanoma
[13] = tested on: NCI-H460 lung
[14] = tested on: BT-549 breast
[15] = tested on: RXF 393 renal
[16] = tested on: SF-268 CNS
[17] = tested on: OVCAR-8 ovarian
[18] = tested on: HCT-15 colon
[19] = tested on: SR leukemia
[20] = tested on: SNB-75 CNS
[21] = tested on: UO-31 renal
[22] = tested on: HOP-62 NSCLC
[23] = tested on: UACC-62 melanoma
[24] = tested on: HS 578T breast
[25] = tested on: CAKI-1 renal
[26] = tested on: SK-MEL-2 melanoma
[27] = tested on: MDA-MB-231 breast
[28] = tested on: SN12C renal
[29] = tested on: NCI-H522 lung
[30] = tested on: RPMI-8226 leukemia
[31] = tested on: A498 renal
[32] = tested on: SNB-19 CNS
[33] = tested on: MOLT-4 leukemia
[34] = tested on: OVCAR-5 ovarian
[35] = tested on: UACC-257 melanoma
[36] = tested on: LOX IMVI melanoma
[37] = tested on: PC-3 prostate
[38] = tested on: M14 melanoma
[39] = tested on: OVCAR-4 ovarian
[40] = tested on: MDA-MB-435
[41] = tested on: HCC-2998 colon
[42] = tested on: HCT-116 colon
[43] = tested on: DU-145 prostate
[44] = tested on: HOP-92 NSCLC
[45] = tested on: NCI/ADR-RES ovarian
[46] = tested on: A549 NSCLC
[47] = tested on: SW-620 colon
[48] = tested on: SF-539 CNS
[49] = tested on: T-47D breast
[50] = tested on: 786-0 renal
[51] = tested on: K-562 leukemia
[52] = tested on: NCI-H226 lung
[53] = tested on: SK-OV-3 ovarian
[54] = tested on: CCRF-CEM leukemia
[55] = tested on: SK-MEL-5 melanoma
[56] = tested on: COLO 205 colon
[57] = tested on: OVCAR-3 ovarian

Cc1ccc(C2=Nn3c(nnc3-c3ccccc3)SC2)cc1
GI50 [1]: > 100 µM | TGI [1]: > 100 µM | GI50 [2]: 17.3 µM | TGI [2]: > 100 µM | GI50 [3]: 0.528 µM | TGI [3]: > 100 µM | GI50 [4]: 3.27 µM | TGI [4]: > 100 µM | GI50 [5]: 0.333 µM | TGI [5]: > 100 µM | GI50 [6]: 0.845 µM | TGI [6]: > 100 µM | GI50 [7]: 0.412 µM | TGI [7]: 3.53 µM | GI50 [8]: 6.84 µM | TGI [8]: > 100 µM | GI50 [9]: 1.6 µM | TGI [9]: > 100 µM | GI50 [10]: 0.801 µM | TGI [10]: > 100 µM | GI50 [11]: 54.1 µM | TGI [11]: > 100 µM | GI50 [12]: 27.4 µM | TGI [12]: > 100 µM | GI50 [13]: 0.389 µM | TGI [13]: 50 µM | GI50 [14]: 0.385 µM | TGI [14]: > 100 µM | GI50 [15]: 1.87 µM | TGI [15]: 19.7 µM | GI50 [16]: 6.37 µM | TGI [16]: > 100 µM | GI50 [17]: 1.78 µM | TGI [17]: 84.6 µM | GI50 [18]: 0.416 µM | TGI [18]: > 100 µM | GI50 [19]: 0.251 µM | TGI [19]: > 100 µM | GI50 [20]: 0.392 µM | TGI [20]: 5.27 µM | GI50 [21]: 2.15 µM | TGI [21]: > 100 µM | GI50 [22]: 1.23 µM | TGI [22]: > 100 µM | GI50 [23]: 0.536 µM | TGI [23]: > 100 µM | GI50 [24]: 1.2 µM | TGI [24]: 25.6 µM | GI50 [25]: 0.75 µM | TGI [25]: > 100 µM | GI50 [26]: 0.921 µM | TGI [26]: 96.9 µM | GI50 [27]: 0.497 µM | TGI [27]: > 100 µM | GI50 [28]: 0.799 µM | TGI [28]: > 100 µM | GI50 [29]: 0.44 µM | TGI [29]: 2.54 µM | GI50 [30]: 0.895 µM | TGI [30]: > 100 µM | GI50 [31]: 0.445 µM | TGI [31]: 5.23 µM | GI50 [32]: 3.5 µM | TGI [32]: > 100 µM | GI50 [33]: 0.461 µM | TGI [33]: > 100 µM | GI50 [34]: 2.57 µM | TGI [34]: > 100 µM | GI50 [35]: > 100 µM | TGI [35]: > 100 µM | GI50 [36]: 0.838 µM | TGI [36]: > 100 µM | GI50 [37]: 0.815 µM | TGI [37]: > 100 µM | GI50 [38]: 0.435 µM | TGI [38]: > 100 µM | GI50 [39]: 6.28 µM | TGI [39]: > 100 µM | GI50 [40]: 0.196 µM | TGI [40]: 0.459 µM | GI50 [41]: 1.04 µM | TGI [41]: > 100 µM | GI50 [42]: 0.428 µM | TGI [42]: > 100 µM | GI50 [43]: 2.85 µM | TGI [43]: > 100 µM | GI50 [44]: 2.58 µM | TGI [44]: > 100 µM | GI50 [45]: 0.262 µM | TGI [45]: 0.881 µM | GI50 [46]: 0.702 µM | TGI [46]: > 100 µM | GI50 [47]: 0.378 µM | TGI [47]: > 100 µM | GI50 [48]: 0.925 µM | TGI [48]: 4.76 µM | GI50 [49]: 0.869 µM | TGI [49]: > 100 µM | GI50 [50]: 6.02 µM | TGI [50]: > 100 µM | GI50 [51]: 0.321 µM | TGI [51]: > 100 µM | GI50 [52]: 3.45 µM | TGI [52]: > 100 µM | GI50 [53]: 1.76 µM | TGI [53]: > 100 µM | GI50 [54]: 1.66 µM | TGI [54]: > 100 µM | GI50 [55]: 0.595 µM | TGI [55]: > 100 µM | GI50 [56]: 0.492 µM | TGI [56]: 24.5 µM

CNCc1cccc2c1OCCCCCCC(C)(O)CC(C)(C)S(=O)(=O)c1ccc(cc1)-c1cnc(N)c(n1)C(=O)N2 (stereo unspecified)
GI50 [1]: 1.21 µM | TGI [1]: 2.58 µM | GI50 [2]: 1.32 µM | TGI [2]: 2.94 µM | GI50 [3]: 0.366 µM | TGI [3]: 1.94 µM | GI50 [4]: 0.0306 µM | TGI [4]: 2.56 µM | GI50 [6]: 1.41 µM | TGI [6]: 2.84 µM | GI50 [7]: 0.0515 µM | TGI [7]: 1.89 µM | GI50 [8]: 1.87 µM | TGI [8]: 6.97 µM | GI50 [10]: 0.433 µM | TGI [10]: 4.48 µM | GI50 [11]: 3.29 µM | TGI [11]: 12.2 µM | GI50 [12]: 1.24 µM | TGI [12]: 2.54 µM | GI50 [14]: 0.762 µM | TGI [14]: 8.99 µM | GI50 [15]: 0.0477 µM | TGI [15]: 1.37 µM | GI50 [16]: 1.27 µM | TGI [16]: 3.57 µM | GI50 [18]: 0.092 µM | TGI [18]: 1.31 µM | TGI [19]: 1.19 µM | GI50 [20]: 0.453 µM | TGI [20]: 6.46 µM | GI50 [21]: 0.224 µM | TGI [21]: 2.21 µM | GI50 [22]: 1.32 µM | TGI [22]: 3.75 µM | GI50 [23]: 1.69 µM | TGI [23]: 3.34 µM | GI50 [24]: 0.381 µM | TGI [24]: 2.91 µM | GI50 [25]: 0.401 µM | TGI [25]: 2.27 µM | GI50 [26]: 1.85 µM | TGI [26]: 4.25 µM | GI50 [27]: 0.953 µM | TGI [27]: 3.14 µM | GI50 [28]: 1.17 µM | TGI [28]: 12.7 µM | GI50 [29]: 0.548 µM | TGI [29]: 2.07 µM | GI50 [30]: 0.637 µM | TGI [30]: 3 µM | GI50 [31]: 3.58 µM | TGI [31]: 16 µM | GI50 [32]: 1.88 µM | TGI [32]: 5.46 µM | GI50 [33]: 0.0151 µM | TGI [33]: 2.57 µM | GI50 [34]: 2.24 µM | TGI [34]: 10.3 µM | GI50 [35]: 1.29 µM | TGI [35]: 2.72 µM | GI50 [37]: 0.91 µM | TGI [37]: 9.17 µM | GI50 [39]: 1.13 µM | TGI [39]: 2.72 µM | GI50 [40]: 0.558 µM | TGI [40]: 2.05 µM | GI50 [43]: 0.603 µM | TGI [43]: 3.24 µM | GI50 [44]: 10.2 µM | TGI [44]: 25.9 µM | GI50 [46]: 0.123 µM | TGI [46]: 2.46 µM | GI50 [47]: 1.36 µM | TGI [47]: 4.17 µM | GI50 [48]: 0.0274 µM | TGI [48]: 2.01 µM | GI50 [49]: 6.44 µM | TGI [49]: 32.7 µM | GI50 [50]: 0.0279 µM | TGI [50]: 2.1 µM | GI50 [51]: 0.0436 µM | TGI [51]: > 100 µM | GI50 [52]: 1.13 µM | TGI [52]: 6.21 µM | GI50 [53]: 1.85 µM | TGI [53]: 18.4 µM | GI50 [54]: 0.0138 µM | TGI [54]: > 20.4 µM | GI50 [55]: 1.3 µM | TGI [55]: 2.57 µM | GI50 [57]: 0.277 µM | GI50 [56]: 0.0664 µM | TGI [56]: 1.52 µM
